Reference: the supplement of paper PMC13380429

Columns and labels:
Settings in all cases: 72 h
Caco-2 [1] = assay: cell viability relative to DMSO; higher = less toxic
Calu-3 [2] = assay: as above
HepG2 [3] = assay: as above
U2OS [4] = assay: as above
Vero E6 [5] = assay: as above
Caco-2 [6] = assay: relative viability EC50 (midpoint between 100% and the lowest measured viability); higher = less toxic
Calu-3 [7] = assay: as above
HepG2 [8] = assay: as above
U2OS [9] = assay: as above
Vero E6 [10] = assay: as above
Caco-2 [11] = assay: drug sensitivity score (DSS) for viability; higher = more toxic; extreme values may be limits of the assay
Calu-3 [12] = assay: as above
HepG2 [13] = assay: as above
U2OS [14] = assay: as above
Vero E6 [15] = assay: as above

For `CC(=O)Nc1ccc(C(=O)NC(C)(C)C)cc1` [CPI-1189], the cell viability (Caco-2 [1]; 1 nM) was 99.9%, the cell viability (Caco-2 [1]; 10 nM) was 99.7% and the cell viability (Caco-2 [1]; 100 nM) was 104%. It also gave a cell viability (Caco-2 [1]; 1000 nM) of 95.7%, a cell viability (Caco-2 [1]; 10000 nM) of 99.9% and a cell viability (Calu-3 [2]; 1 nM) of 108%. The cell viability (Calu-3 [2]; 10 nM) was 105%, the cell viability (Calu-3 [2]; 100 nM) was 108% and the cell viability (Calu-3 [2]; 1000 nM) was 114%. It also gave a cell viability (Calu-3 [2]; 10000 nM) of 96.6%, a cell viability (HepG2 [3]; 1 nM) of 91.5% and a cell viability (HepG2 [3]; 10 nM) of 95.3%. It also gave a cell viability (HepG2 [3]; 100 nM) of 96.6%, a cell viability (HepG2 [3]; 1000 nM) of 97.4% and a cell viability (HepG2 [3]; 10000 nM) of 94.2%. For the same compound, the cell viability (U2OS [4]; 1 nM) was 100%, the cell viability (U2OS [4]; 10 nM) was 93.3% and the cell viability (U2OS [4]; 100 nM) was 98.2%. For the same compound, the cell viability (U2OS [4]; 1000 nM) was 97%, the cell viability (U2OS [4]; 10000 nM) was 98.7% and the cell viability (Vero E6 [5]; 1 nM) was 96%. It also gave a cell viability (Vero E6 [5]; 10 nM) of 99.6%, a cell viability (Vero E6 [5]; 100 nM) of 97.8% and a cell viability (Vero E6 [5]; 1000 nM) of 97.2%. For the same compound, the cell viability (Vero E6 [5]; 10000 nM) was 91.8%, the “relative viability EC50” value (Caco-2 [6]) was > 10 µM and the “relative viability EC50” value (Calu-3 [7]) was > 10 µM. For the same compound, the “relative viability EC50” value (HepG2 [8]) was > 10 µM, the “relative viability EC50” value (U2OS [9]) was > 10 µM and the “relative viability EC50” value (Vero E6 [10]) was > 10 µM. It also gave a drug sensitivity score (Caco-2 [11]) of 0, a drug sensitivity score (Calu-3 [12]) of 0 and a drug sensitivity score (HepG2 [13]) of 0. It also gave a drug sensitivity score (U2OS [14]) of 0 and a drug sensitivity score (Vero E6 [15]) of 0.

Work on `CC(C)(CC(=O)N1CCCC1)NCC(=O)N1C[C@@H](F)C[C@H]1C#N` [DBPR108] yielded a cell viability (Caco-2 [1]; 1 nM) of 91.1%, a cell viability (Caco-2 [1]; 10 nM) of 93.5% and a cell viability (Caco-2 [1]; 100 nM) of 86.4%. The cell viability (Caco-2 [1]; 1000 nM) was 95.6%, the cell viability (Caco-2 [1]; 10000 nM) was 95% and the cell viability (Calu-3 [2]; 1 nM) was 107%. It also gave a cell viability (Calu-3 [2]; 10 nM) of 97.5%, a cell viability (Calu-3 [2]; 100 nM) of 100% and a cell viability (Calu-3 [2]; 1000 nM) of 98.9%. For the same compound, the cell viability (Calu-3 [2]; 10000 nM) was 95%, the cell viability (HepG2 [3]; 1 nM) was 96.2% and the cell viability (HepG2 [3]; 10 nM) was 102%. It also gave a cell viability (HepG2 [3]; 100 nM) of 94.6%, a cell viability (HepG2 [3]; 1000 nM) of 104% and a cell viability (HepG2 [3]; 10000 nM) of 105%. The cell viability (U2OS [4]; 1 nM) was 97.9%, the cell viability (U2OS [4]; 10 nM) was 98.1% and the cell viability (U2OS [4]; 100 nM) was 99.1%. For the same compound, the cell viability (U2OS [4]; 1000 nM) was 100%, the cell viability (U2OS [4]; 10000 nM) was 92.9% and the cell viability (Vero E6 [5]; 1 nM) was 99.6%. For the same compound, the cell viability (Vero E6 [5]; 10 nM) was 99.9%, the cell viability (Vero E6 [5]; 100 nM) was 104% and the cell viability (Vero E6 [5]; 1000 nM) was 92.2%. For the same compound, the cell viability (Vero E6 [5]; 10000 nM) was 102%, the “relative viability EC50” value (Caco-2 [6]) was > 10 µM and the “relative viability EC50” value (Calu-3 [7]) was > 10 µM. The “relative viability EC50” value (HepG2 [8]) was > 10 µM, the “relative viability EC50” value (U2OS [9]) was > 10 µM and the “relative viability EC50” value (Vero E6 [10]) was > 10 µM. For the same compound, the drug sensitivity score (Caco-2 [11]) was 0, the drug sensitivity score (Calu-3 [12]) was 0 and the drug sensitivity score (HepG2 [13]) was 0. The drug sensitivity score (U2OS [14]) was 0 and the drug sensitivity score (Vero E6 [15]) was 0.

In the case of `O=C(c1ccc(Cl)cc1)N(Cc1ccccc1)C1CCCCC1` [FPS-ZM1], the cell viability (Caco-2 [1]; 1 nM) is reported as 101%, the cell viability (Caco-2 [1]; 10 nM) is reported as 91.6% and the cell viability (Caco-2 [1]; 100 nM) is reported as 93.3%. For the same compound, the cell viability (Caco-2 [1]; 1000 nM) was 102%, the cell viability (Caco-2 [1]; 10000 nM) was 89.4% and the cell viability (Calu-3 [2]; 1 nM) was 105%. The cell viability (Calu-3 [2]; 10 nM) was 96.3%, the cell viability (Calu-3 [2]; 100 nM) was 102% and the cell viability (Calu-3 [2]; 1000 nM) was 99.3%. For the same compound, the cell viability (Calu-3 [2]; 10000 nM) was 89.7%, the cell viability (HepG2 [3]; 1 nM) was 106% and the cell viability (HepG2 [3]; 10 nM) was 106%. The cell viability (HepG2 [3]; 100 nM) was 102%, the cell viability (HepG2 [3]; 1000 nM) was 92.9% and the cell viability (HepG2 [3]; 10000 nM) was 93.8%. It also gave a cell viability (U2OS [4]; 1 nM) of 98%, a cell viability (U2OS [4]; 10 nM) of 98.6% and a cell viability (U2OS [4]; 100 nM) of 97.4%. For the same compound, the cell viability (U2OS [4]; 1000 nM) was 100%, the cell viability (U2OS [4]; 10000 nM) was 96.2% and the cell viability (Vero E6 [5]; 1 nM) was 97.6%. It also gave a cell viability (Vero E6 [5]; 10 nM) of 97.7%, a cell viability (Vero E6 [5]; 100 nM) of 99.3% and a cell viability (Vero E6 [5]; 1000 nM) of 101%. For the same compound, the cell viability (Vero E6 [5]; 10000 nM) was 90.8%, the “relative viability EC50” value (Caco-2 [6]) was > 10 µM and the “relative viability EC50” value (Calu-3 [7]) was > 10 µM. The “relative viability EC50” value (HepG2 [8]) was > 10 µM, the “relative viability EC50” value (U2OS [9]) was > 10 µM and the “relative viability EC50” value (Vero E6 [10]) was > 10 µM. It also gave a drug sensitivity score (Caco-2 [11]) of 0, a drug sensitivity score (Calu-3 [12]) of 0 and a drug sensitivity score (HepG2 [13]) of 0. It also gave a drug sensitivity score (U2OS [14]) of 0 and a drug sensitivity score (Vero E6 [15]) of 0.

With `Cc1ccc2c(c1)Cc1c(C(=O)NN3CCCCC3)nn(-c3ccc(Cl)cc3Cl)c1-2` [GP1a] the cell viability (Caco-2 [1]; 1 nM) was 102%, the cell viability (Caco-2 [1]; 10 nM) was 102% and the cell viability (Caco-2 [1]; 100 nM) was 103%. For the same compound, the cell viability (Caco-2 [1]; 1000 nM) was 99.5%, the cell viability (Caco-2 [1]; 10000 nM) was 84.1% and the cell viability (Calu-3 [2]; 1 nM) was 99.6%. It also gave a cell viability (Calu-3 [2]; 10 nM) of 101%, a cell viability (Calu-3 [2]; 100 nM) of 91.8% and a cell viability (Calu-3 [2]; 1000 nM) of 101%. The cell viability (Calu-3 [2]; 10000 nM) was 86.7%, the cell viability (HepG2 [3]; 1 nM) was 100% and the cell viability (HepG2 [3]; 10 nM) was 96.9%. For the same compound, the cell viability (HepG2 [3]; 100 nM) was 98.4%, the cell viability (HepG2 [3]; 1000 nM) was 91.9% and the cell viability (HepG2 [3]; 10000 nM) was 91.3%. It also gave a cell viability (U2OS [4]; 1 nM) of 99.4%, a cell viability (U2OS [4]; 10 nM) of 108% and a cell viability (U2OS [4]; 100 nM) of 97.7%. It also gave a cell viability (U2OS [4]; 1000 nM) of 101%, a cell viability (U2OS [4]; 10000 nM) of 89.7% and a cell viability (Vero E6 [5]; 1 nM) of 99.9%. The cell viability (Vero E6 [5]; 10 nM) was 100%, the cell viability (Vero E6 [5]; 100 nM) was 103% and the cell viability (Vero E6 [5]; 1000 nM) was 100%. The cell viability (Vero E6 [5]; 10000 nM) was 98.6%, the “relative viability EC50” value (Caco-2 [6]) was > 10 µM and the “relative viability EC50” value (Calu-3 [7]) was > 10 µM. The “relative viability EC50” value (HepG2 [8]) was > 10 µM, the “relative viability EC50” value (U2OS [9]) was > 10 µM and the “relative viability EC50” value (Vero E6 [10]) was > 10 µM. For the same compound, the drug sensitivity score (Caco-2 [11]) was 0.3, the drug sensitivity score (Calu-3 [12]) was 0.1 and the drug sensitivity score (HepG2 [13]) was 0. The drug sensitivity score (U2OS [14]) was 0 and the drug sensitivity score (Vero E6 [15]) was 0.
